Data on four compounds can be found in ChEMBL document CHEMBL4715817, “Python Cathelicidin CATHPb1 Protects against Multidrug-Resistant Staphylococcal Infections by Antimicrobial-Immunomodulatory Duality” (J Med Chem, 2018).

Calls of active or inactive are those of the source. The calls are words filed in the database; no cut-off is given here. Peptide text beside a SMILES is read from it.

Assay [1] deals with Macrophage. The experiment in a line: Immunomodulatory activity in mouse peritoneal macrophage assessed as inhibition of LPS-induced IL-1beta level at 5 to 20 ug/ml measured after 24 hrs by ELISA. It is filed as functional, tissue-based. To be noted: dose 5-20 µg/ml. A general note: An ELISA detects its analyte on a solid surface through an enzyme-linked reagent.
Assay [2] concerns Macrophage. The experiment in a line: Immunomodulatory activity in mouse peritoneal macrophage assessed as inhibition of LPS-induced IL-6 level at 5 to 20 ug/ml measured after 6 hrs by qRT-PCR analysis. The assay is classed as functional, tissue-based. To be noted: dose 5-20 µg/ml. Background: Quantitative PCR measures a nucleic acid by following its amplification.
Assay [3] concerns Macrophage. The experiment in a line: Immunomodulatory activity in mouse peritoneal macrophage assessed as inhibition of LPS-induced TNF-alpha level at 5 to 20 ug/ml measured after 24 hrs by ELISA. The assay is classed as functional, tissue-based. To be noted: dose 5-20 µg/ml.
Assay [4] deals with Macrophage. The experiment in a line: Immunomodulatory activity in mouse peritoneal macrophage assessed as inhibition of LPS-induced MCP-1 level at 5 to 20 ug/ml measured after 24 hrs by ELISA. It is filed as functional, tissue-based. Conditions: dose 5-20 µg/ml.
The subject of assay [5] is Macrophage. The assay is described as follows: Immunomodulatory activity in mouse peritoneal macrophage assessed as inhibition of LPS-induced TNF-alpha level at 5 to 20 ug/ml measured after 6 hrs by qRT-PCR analysis. It is filed as functional, tissue-based. To be noted: dose 5-20 µg/ml.
For assay [6], the system named is Macrophage. The experiment in a line: Immunomodulatory activity in mouse peritoneal macrophage assessed as inhibition of LPS-induced IL-6 level at 5 to 20 ug/ml measured after 24 hrs by ELISA. It is filed as functional, tissue-based. Conditions: dose 5-20 µg/ml.
Assay [7] deals with Macrophage. The assay is described as follows: Immunomodulatory activity in mouse peritoneal macrophage assessed as inhibition of LPS-induced IL-1beta level at 5 to 20 ug/ml measured after 6 hrs by qRT-PCR analysis. The assay is classed as functional, tissue-based. Conditions: dose 5-20 µg/ml.
The subject of assay [8] is Macrophage. The assay is described as follows: Immunomodulatory activity in mouse peritoneal macrophage assessed as inhibition of LPS-induced MCP-1 level at 5 to 20 ug/ml measured after 6 hrs by qRT-PCR analysis. The assay is classed as functional, tissue-based. Conditions: dose 5-20 µg/ml.
Assay [9] deals with Macrophage. The experiment in a line: Immunomodulatory activity in mouse peritoneal macrophage assessed as inhibition of LPS-induced IL-6 level at 20 ug/ml measured after 6 hrs by qRT-PCR analysis. The assay is classed as functional, tissue-based. To be noted: dose 20.0 µg/ml.
The test system of assay [10] is Macrophage. The assay is described as follows: Immunomodulatory activity in mouse peritoneal macrophage assessed as inhibition of LPS-induced IL-1beta level at 20 ug/ml measured after 24 hrs by ELISA. It is filed as functional, tissue-based. Conditions: dose 20.0 µg/ml.
In assay [11] the test system is Macrophage. The experiment in a line: Immunomodulatory activity in mouse peritoneal macrophage assessed as inhibition of LPS-induced TNF-alpha level at 20 ug/ml measured after 6 hrs by qRT-PCR analysis. The assay is classed as functional, tissue-based. To be noted: dose 20.0 µg/ml.
The test system of assay [12] is Macrophage. The assay is described as follows: Immunomodulatory activity in mouse peritoneal macrophage assessed as inhibition of LPS-induced TNF-alpha level at 20 ug/ml measured after 24 hrs by ELISA. To be noted: dose 20.0 µg/ml. The assay is classed as functional, tissue-based.
Assay [13] relates to Macrophage. The assay is described as follows: Immunomodulatory activity in mouse peritoneal macrophage assessed as inhibition of LPS-induced IL-6 level at 20 ug/ml measured after 24 hrs by ELISA. It is filed as functional, tissue-based. Conditions: dose 20.0 µg/ml.
Assay [14] concerns Macrophage. The assay is described as follows: Immunomodulatory activity in mouse peritoneal macrophage assessed as inhibition of LPS-induced IL-1beta level at 20 ug/ml measured after 6 hrs by qRT-PCR analysis. It is filed as functional, tissue-based. Conditions: dose 20.0 µg/ml.
A short description of assay [15]: Immunomodulatory activity in mouse peritoneal macrophage assessed as inhibition of LPS-induced IL-6 level measured after 24 hrs by ELISA. The assay is classed as functional. On the set-up: scale not given: the % may be the effect or the level left. To be noted: dose 5-20 µg/ml, at 5 to 20 µg/mL.
The next assay deals with Staphylococcus aureus. The experiment in a line: In vivo antibacterial activity against methicillin sensitive Staphylococcus aureus ATCC 25923 infected in kunming mouse assessed as increase in survival rate at 10 mg/kg, ip administered 4 hrs after infection and measured up to 7 days after infection relative to control. Conditions: time day <=7. The assay is classed as functional.

As for `CC[C@H](C)[C@H](NC(=O)[C@H](CO)NC(=O)[C@H](CO)NC(=O)CNC(=O)CNC(=O)CNC(=O)[C@H](C)NC(=O)[C@H](Cc1ccccc1)NC(=O)[C@H](Cc1ccccc1)NC(=O)[C@H](CCCCN)NC(=O)[C@H](CCCCN)NC(=O)[C@H](CC(C)C)NC(=O)[C@H](CCCNC(=N)N)NC(=O)[C@H](CCCNC(=N)N)NC(=O)[C@H](CCSC)NC(=O)[C@H](Cc1ccccc1)NC(=O)[C@H](CCCCN)NC(=O)[C@H](CCCNC(=N)N)NC(=O)[C@H](Cc1ccccc1)NC(=O)CNC(=O)[C@H](CC(N)=O)NC(=O)[C@H](CCCNC(=N)N)NC(=O)[C@@H](N)CCCCN)C(=O)N[C@@H](C)C(=O)N[C@@H](Cc1cnc[nH]1)C(=O)N[C@H](C(=O)N[C@@H](CCCCN)C(=O)N[C@@H](CC(C)C)C(=O)N[C@@H](Cc1cnc[nH]1)C(=O)O)[C@@H](C)CC` (H-KRNGFRKFMRRLKKFFAGGGSSIAHIKLH-OH), the inhibition entry in the assay with Macrophage [1], with Macrophage [2], in the assay with Macrophage [3], in the assay with Macrophage [4], in the assay on Macrophage [5] and with Macrophage [6] was “Active” each time. The inhibition result in the assay with Macrophage [7] and in the assay on Macrophage [8] was “Active” throughout.
Take `CSCC[C@H](NC(=O)[C@H](C)NC(=O)[C@H](CCCNC(=N)N)NC(=O)[C@H](CC(C)C)NC(=O)[C@H](CCCNC(=N)N)NC(=O)[C@H](CCCNC(=N)N)NC(=O)[C@H](CCC(N)=O)NC(=O)[C@@H]1CCCN1C(=O)[C@H](C)NC(=O)[C@H](C)NC(=O)[C@@H](N)CCCNC(=N)N)C(=O)N[C@@H](C)C(=O)N[C@@H](CCCNC(=N)N)C(=O)N[C@@H](CC(C)C)C(=O)N[C@@H](CCCCN)C(=O)N[C@@H](CCCCN)C(=O)N[C@@H](Cc1ccccc1)C(=O)N[C@@H](C)C(=O)N[C@@H](CCC(=O)O)C(=O)N[C@@H](C)C(=O)NCC(=O)NCC(=O)N[C@@H](C)C(=O)N[C@@H](CC(=O)O)C(=O)N1CCC[C@H]1C(=O)N[C@@H](CC(=O)O)C(=O)N[C@@H](CO)C(=O)NCC(=O)NCC(=O)N[C@@H](CC(C)C)C(=O)N[C@@H](CCCNC(=N)N)C(=O)N[C@@H](C)C(=O)N[C@@H](CCCNC(=N)N)C(=O)N[C@@H](Cc1ccccc1)C(=O)N1CCC[C@H]1C(=O)N[C@@H](CCC(=O)O)C(=O)N[C@@H](CCCNC(=N)N)C(=O)O` (H-RAAPQRRLRAMARLKKFAEAGGADPDSGGLRARFPER-OH): the inhibition result with Macrophage [9], with Macrophage [10], in the assay with Macrophage [11], with Macrophage [12], with Macrophage [13] and with Macrophage [14] was “Active” in each case.
For the compound `CC[C@H](C)[C@H](NC(=O)[C@H](CCCNC(=N)N)NC(=O)[C@H](Cc1c[nH]c2ccccc12)NC(=O)CNC(=O)[C@H](Cc1ccc(O)cc1)NC(=O)[C@H](CCCNC(=N)N)NC(=O)[C@H](CCCNC(=N)N)NC(=O)[C@H](C)NC(=O)[C@H](Cc1ccccc1)NC(=O)[C@H](CCCNC(=N)N)NC(=O)CNC(=O)[C@H](C)NC(=O)CNC(=O)[C@H](CCCNC(=N)N)NC(=O)[C@@H](NC(=O)[C@H](Cc1ccccc1)NC(=O)[C@H](CCCNC(=N)N)NC(=O)[C@H](CCCNC(=N)N)NC(=O)[C@H](Cc1c[nH]c2ccccc12)NC(=O)[C@H](CCCNC(=N)N)NC(=O)[C@H](CO)NC(=O)[C@H](CCCNC(=N)N)NC(=O)[C@@H](N)[C@@H](C)O)[C@@H](C)CC)C(=O)N[C@@H](C)C(=O)N[C@@H](CC(C)C)C(=O)NCC(=O)N[C@@H](CC(C)C)C(=O)N[C@H](C(=O)NCC(=O)O)C(C)C` (H-TRSRWRRFIRGAGRFARRYGWRIALGLVG-OH), the inhibition entry with Macrophage [1], in the assay with Macrophage [2], in the assay on Macrophage [3], in the assay on Macrophage [4], in the assay on Macrophage [5] and in the assay on Macrophage [6] was “Active” each time. The inhibition entry with Macrophage [7] and in the assay on Macrophage [8] was “Active” throughout. Further, the Activity in [15] came out at 65.59%.
Consider `CN[C@H](CC(C)C)C(=O)N[C@H]1C(=O)N[C@@H](CC(N)=O)C(=O)N[C@H]2C(=O)N[C@H]3C(=O)N[C@H](C(=O)N[C@H](C(=O)O)c4cc(O)cc(O)c4-c4cc3ccc4O)[C@H](O)c3ccc(c(Cl)c3)Oc3cc2cc(c3O[C@@H]2O[C@H](CO)[C@@H](O)[C@H](O)[C@H]2O[C@H]2C[C@](C)(N)[C@H](O)[C@H](C)O2)Oc2ccc(cc2Cl)[C@H]1O` [VANCOMYCIN], for which the Activity in the assay with Staphylococcus aureus turned out to be 35%.
